The target in series [1] is T1, full-length beta-Catenin (Uniprot ID P35222) (Homo sapiens, UniProt P35222).
T1 construct: 10 nM full-length beta-Catenin (Uniprot ID P35222)
T1 sequence (P35222 1-781): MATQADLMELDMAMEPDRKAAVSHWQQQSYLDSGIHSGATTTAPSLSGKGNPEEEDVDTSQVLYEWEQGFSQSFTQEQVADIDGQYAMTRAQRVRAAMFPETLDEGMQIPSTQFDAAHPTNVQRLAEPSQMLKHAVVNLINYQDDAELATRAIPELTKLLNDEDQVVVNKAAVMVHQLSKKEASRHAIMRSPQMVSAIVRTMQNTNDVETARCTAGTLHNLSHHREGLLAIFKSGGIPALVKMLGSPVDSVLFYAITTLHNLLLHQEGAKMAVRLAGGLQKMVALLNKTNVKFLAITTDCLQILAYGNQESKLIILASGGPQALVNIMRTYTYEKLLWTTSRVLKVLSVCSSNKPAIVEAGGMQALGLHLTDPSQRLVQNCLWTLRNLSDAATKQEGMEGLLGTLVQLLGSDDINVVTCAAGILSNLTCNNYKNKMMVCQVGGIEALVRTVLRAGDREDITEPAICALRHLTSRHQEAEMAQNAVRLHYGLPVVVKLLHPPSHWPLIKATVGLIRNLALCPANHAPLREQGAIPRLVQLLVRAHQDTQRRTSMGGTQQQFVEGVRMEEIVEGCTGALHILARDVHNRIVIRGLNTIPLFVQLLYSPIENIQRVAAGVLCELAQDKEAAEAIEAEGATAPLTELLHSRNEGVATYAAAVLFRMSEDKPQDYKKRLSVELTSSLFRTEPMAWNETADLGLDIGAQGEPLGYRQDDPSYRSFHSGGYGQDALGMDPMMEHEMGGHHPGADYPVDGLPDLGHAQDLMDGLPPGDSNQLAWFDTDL
The series can be described thus: Fluorescence polarization IC50 (beta-catenin / 5FAM-TCF4 10-53 competition). In kind it is binding. To be noted: fluorescence polarization; read-out: beta-Catenin FP IC50.

A short description of another series: Solubility in PBS. It is filed as physicochemical. Summed up:
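HPLC quantitation of peptide remaining in the PBS supernatant after ultracentrifugation, referenced to a 50 μM solution in DMSO.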

In series [2] the target is T2, beta-catenin/TCF4 engagement (Homo sapiens, UniProt P35222).
T2 construct: expressed in transfected cells; host or cells: HEK293
T2 sequence (P35222 1-781): T1 sequence (P35222 1-781)
The series can be described thus: Nano-BRET target engagement assay (B-cat-Halo & TCF4-Luc in HEK293 cells). In kind it is cell-based. To be noted: absolute IC50; read-out: NanoBRET Abs IC50.

The text below walks through data of patent US20240116985A1, “STAPLED PEPTIDES AND METHODS THEREOF” (priority 2020, published 2024).

In general, IC50 refers to the concentration needed to halve the response being measured. In general, Solubility refers to how much of the substance goes into solution per volume. Read a low Solubility as a poorly soluble substance.

≈ marks a conversion by molar mass, not a printed value. Read-outs that look alike come from different tables or passages of the source. A value given as a limit tells only on which side of the number the result lay.

On to `CC(=O)N1CCC[C@]12CC=CCCCC1(CCCC=CCCCOC(=O)N3CC[C@@](C(=O)N[C@@H](Cc4c(F)c(F)c(F)c(F)c4F)C(=O)N[C@@H](Cc4csc5ccccc45)C(=O)N[C@@H](CCC(N)=O)C(N)=O)(C3)NC(=O)[C@H](CC(C)C)NC(=O)[C@H](Cc3ccccc3)NC(=O)[C@H](C)NC(=O)[C@H](C)NC(=O)[C@H](CC(=O)O)NC(=O)[C@H](CC(=O)O)NC1=O)NC(=O)[C@H](CC(C)(C)C)NC(=O)[C@H](CC(=O)O)NC2=O` (stereo partly drawn) [I-1185, Ac-PL3-Asp-Npg-B5-Asp-Asp-Ala-Ala-Phe-Leu-PyrS2-Pff-BztA-Gln-NH2], for which the IC50 in series [1] was determined as 203 nM; in series [2] it was 26900 nM. For the same molecule, in the series “Solubility in PBS” (Solubility (uM)), the Solubility was determined as 33 µM (≈ 66 µg/mL).

For `CC(=O)N1CCC[C@]12CC=CCCCC1(CCCC=CCCCOC(=O)N3CC[C@@](C(=O)N[C@@H](Cc4c(F)c(F)c(F)c(F)c4F)C(=O)N[C@@H](Cc4csc5ccccc45)C(=O)N[C@@H](CCC(N)=O)C(N)=O)(C3)NC(=O)[C@H](CC(N)=O)NC(=O)[C@H](Cc3ccccc3)NC(=O)[C@H](C)NC(=O)[C@H](C)NC(=O)[C@H](CC(=O)O)NC(=O)[C@H](CC(=O)O)NC1=O)NC(=O)[C@H](CC(C)(C)C)NC(=O)[C@H](CC(=O)O)NC2=O` (stereo partly drawn) [I-1186, Ac-PL3-Asp-Npg-B5-Asp-Asp-Ala-Ala-Phe-Asn-PyrS2-Pff-BztA-Gln-NH2], the values for the IC50 in series [1] and in series [2] were 128 nM and 23600 nM, respectively. Also, the Solubility in the series “Solubility in PBS” (Solubility (uM)) was 46 µM (≈ 92.1 µg/mL).

Take `CC(=O)N1CCC[C@]12CC=CCCCC1(CCCC=CCCCOC(=O)N3CC[C@@](C(=O)N[C@@H](Cc4c(F)c(F)c(F)c(F)c4F)C(=O)N[C@@H](Cc4csc5ccccc45)C(=O)N[C@@H](CO)C(N)=O)(C3)NC(=O)[C@H]([C@@H](C)O)NC(=O)[C@H](Cc3ccccc3)NC(=O)[C@H](C)NC(=O)[C@H](C)NC(=O)[C@H](CC(=O)O)NC(=O)[C@H](CC(=O)O)NC1=O)NC(=O)[C@H](CC1CCCCC1)NC(=O)[C@H](CC(=O)O)NC2=O` (stereo partly drawn) [I-1187, Ac-PL3-Asp-Cha-B5-Asp-Asp-Ala-Ala-Phe-Thr-PyrS2-Pff-BztA-Ser-NH2]: the figures for the IC50 in series [1] and in series [2] were 80.5 nM and 28600 nM, respectively. The molecule also registered a Solubility in “Solubility in PBS” (Solubility (uM)) of 42 µM (≈ 82.9 µg/mL).

Turning to `CC(=O)N1CCC[C@]12CC=CCCCC1(CCCC=CCCCCCC[C@@](C)(C(=O)N[C@@H](Cc3ccsc3)C(=O)N[C@@H](Cc3csc4ccccc34)C(=O)N[C@@H](CCC(N)=O)C(N)=O)NC(=O)[C@H](CC(C)C)NC(=O)[C@H](Cc3ccccc3)NC(=O)[C@H](C)NC(=O)[C@H](C)NC(=O)[C@H](CC(=O)O)NC(=O)[C@H](CC(=O)O)NC1=O)NC(=O)[C@H](CC(C)(C)C)NC(=O)[C@H](CC(=O)O)NC2=O` (stereo partly drawn) [I-1188, Ac-PL3-Asp-Npg-B5-Asp-Asp-Ala-Ala-Phe-Leu-S8-3Thi-BztA-Gln-NH2], the IC50 in series [1] was 22.5 nM; in series [2], 7200 nM. For the same molecule, in the series “Solubility in PBS” (Solubility (uM)), the concentration in solution (Solubility) came to 18 µM (≈ 33.7 µg/mL).

`CC(=O)N1CCC[C@]12CC=CCCCC1(CCCC=CCCCCCC[C@@](C)(C(=O)N[C@@H](Cc3ccsc3)C(=O)N[C@@H](Cc3csc4ccccc34)C(=O)N[C@@H](Cc3c[nH]cn3)C(N)=O)NC(=O)[C@H](CC(C)C)NC(=O)[C@H](Cc3ccccc3)NC(=O)[C@H](C)NC(=O)[C@H](C)NC(=O)[C@H](CC(=O)O)NC(=O)[C@H](CC(=O)O)NC1=O)NC(=O)[C@H](CC(C)(C)C)NC(=O)[C@H](CC(=O)O)NC2=O` (stereo partly drawn) [I-1195, Ac-PL3-Asp-Npg-B5-Asp-Asp-Ala-Ala-Phe-Leu-S8-3Thi-BztA-His-NH2]: the IC50 worked out at 29.5 nM in series [1] and 16200 nM in series [2]. Further, in “Solubility in PBS”, the “Solubility” value is 10 µM (≈ 18.8 µg/mL).

Consider `CC(=O)N1CCC[C@]12CC=CCCCC1(CCCC=CCCCOC(=O)N3CC[C@@](C(=O)N[C@@H](Cc4ccsc4)C(=O)N[C@@H](Cc4csc5ccccc45)C(=O)N[C@@H](CCC(N)=O)C(N)=O)(C3)NC(=O)[C@H](CC(C)C)NC(=O)[C@H](Cc3ccccc3C#N)NC(=O)[C@H](C)NC(=O)[C@H](C)NC(=O)[C@H](CC(=O)O)NC(=O)[C@H](CC(=O)O)NC1=O)NC(=O)[C@H](CC(C)(C)C)NC(=O)[C@H](CC(=O)O)NC2=O` (stereo partly drawn) [I-1200, Ac-PL3-Asp-Npg-B5-Asp-Asp-Ala-Ala-2CNF-Leu-PyrS2-3Thi-BztA-Gln-NH2], for which the IC50 in series [1] was 99 nM; in series [2], more than 20000 nM. In “Solubility in PBS” (Solubility (uM)), this molecule showed a Solubility of 48 µM (≈ 93.2 µg/mL).

Turning to `CC(=O)N1CCC[C@]12CC=CCCCC1(CCCC=CCCCOC(=O)N3CC[C@@](C(=O)N[C@@H](Cc4ccsc4)C(=O)N[C@@H](Cc4csc5ccccc45)C(=O)N[C@@H](CCC(N)=O)C(N)=O)(C3)NC(=O)[C@H](CC(C)C)NC(=O)[C@H](Cc3cccc(C#N)c3)NC(=O)[C@H](C)NC(=O)[C@H](C)NC(=O)[C@H](CC(=O)O)NC(=O)[C@H](CC(=O)O)NC1=O)NC(=O)[C@H](CC(C)(C)C)NC(=O)[C@H](CC(=O)O)NC2=O` (stereo partly drawn) [I-1201, Ac-PL3-Asp-Npg-B5-Asp-Asp-Ala-Ala-3CNF-Leu-PyrS2-3Thi-BztA-Gln-NH2], the IC50 in series [1] turned out to be 13 nM; in series [2], 19600 nM. In the series “Solubility in PBS” (Solubility (uM)), this molecule gave a Solubility of 47 µM (≈ 91.3 µg/mL).

Consider `CC(=O)N1CCC[C@]12CC=CCCCC1(CCCC=CCCCOC(=O)N3CC[C@@](C(=O)N[C@@H](Cc4ccsc4)C(=O)N[C@@H](Cc4csc5ccccc45)C(=O)N[C@@H](CCC(N)=O)C(N)=O)(C3)NC(=O)[C@H](CC(C)C)NC(=O)[C@H](Cc3ccc(C#N)cc3)NC(=O)[C@H](C)NC(=O)[C@H](C)NC(=O)[C@H](CC(=O)O)NC(=O)[C@H](CC(=O)O)NC1=O)NC(=O)[C@H](CC(C)(C)C)NC(=O)[C@H](CC(=O)O)NC2=O` (stereo partly drawn) [I-1202, Ac-PL3-Asp-Npg-B5-Asp-Asp-Ala-Ala-4CNF-Leu-PyrS2-3Thi-BztA-Gln-NH2], for which the IC50 in series [1] was determined as 16 nM; in series [2] it was 16300 nM. Moreover, the “Solubility” value in the series “Solubility in PBS” was 50 µM (≈ 97.1 µg/mL).

As for `CC(=O)N1CCC[C@]12CC=CCCCC1(CCCC=CCCCOC(=O)N3CC[C@@](C(=O)N[C@@H](Cc4ccccc4C#N)C(=O)N[C@@H](Cc4csc5ccccc45)C(=O)N[C@@H](CCC(N)=O)C(N)=O)(C3)NC(=O)[C@H](CC(C)C)NC(=O)[C@H](Cc3ccccc3)NC(=O)[C@H](C)NC(=O)[C@H](C)NC(=O)[C@H](CC(=O)O)NC(=O)[C@H](CC(=O)O)NC1=O)NC(=O)[C@H](CC(C)(C)C)NC(=O)[C@H](CC(=O)O)NC2=O` (stereo partly drawn) [I-1203, Ac-PL3-Asp-Npg-B5-Asp-Asp-Ala-Ala-Phe-Leu-PyrS2-2CNF-BztA-Gln-NH2], the IC50 is 16 nM in series [1] and 10000 nM in series [2]. Further, the “Solubility” value in “Solubility in PBS” came out at 50 µM (≈ 96.8 µg/mL).

Consider `CC(=O)N1CCC[C@]12CC=CCCCC1(CCCC=CCCCOC(=O)N3CC[C@@](C(=O)N[C@@H](Cc4ccsc4)C(=O)N[C@@H](Cc4csc5ccccc45)C(=O)N[C@@H](CCC(N)=O)C(N)=O)(C3)NC(=O)[C@H](CC(N)=O)NC(=O)[C@H](Cc3ccccc3)NC(=O)[C@H](C)NC(=O)[C@H](C)NC(=O)[C@H](CC(=O)O)NC(=O)[C@H](CC(N)=O)NC1=O)NC(=O)[C@H](CC(C)(C)C)NC(=O)[C@H](CC(=O)O)NC2=O` (stereo partly drawn) [I-1206, Ac-PL3-Asp-Npg-B5-Asn-Asp-Ala-Ala-Phe-Asn-PyrS2-3Thi-BztA-Gln-NH2], for which the IC50 in series [1] amounted to 32 nM; in series [2], 27800 nM. For the same molecule, the “Solubility” value in the series “Solubility in PBS” stood at 50 µM (≈ 95.9 µg/mL).

As for `CC(=O)N1CCC[C@]12CC=CCCCC1(CCCC=CCCCOC(=O)N3CC[C@@](C(=O)N[C@@H](Cc4ccsc4)C(=O)N[C@@H](Cc4csc5ccccc45)C(=O)N[C@@H](CCC(N)=O)C(N)=O)(C3)NC(=O)[C@H](CC(C)C)NC(=O)[C@H](Cc3ccccc3)NC(=O)[C@H](C)NC(=O)[C@H](C)NC(=O)[C@H](CC(=O)O)NC(=O)[C@H](CC(N)=O)NC1=O)NC(=O)[C@H](CC(C)(C)C)NC(=O)[C@H](CC(=O)O)NC2=O` (stereo partly drawn) [I-1207, Ac-PL3-Asp-Npg-B5-Asn-Asp-Ala-Ala-Phe-Leu-PyrS2-3Thi-BztA-Gln-NH2], the figures for the IC50 in series [1] and in series [2] were 40 nM and 7500 nM, respectively. In “Solubility in PBS” (Solubility (uM)), the Solubility was 11 µM (≈ 21.1 µg/mL).

As for `COCCOCCC(=O)N1CCC[C@]12CC=CCCCC1(CCCC=CCCCOC(=O)N3CC[C@@](C(=O)N[C@@H](Cc4ccccc4Cl)C(=O)N[C@@H](Cc4csc5ccccc45)C(=O)N[C@@H](C(N)=O)[C@H](C)O)(C3)NC(=O)[C@H](CC(N)=O)NC(=O)[C@H](Cc3ccccc3)NC(=O)[C@H](C)NC(=O)[C@H](C)NC(=O)[C@H](CC(=O)O)NC(=O)[C@H](CC(=O)O)NC1=O)NC(=O)[C@H](CC(C)(C)C)NC(=O)[C@H](CC(=O)O)NC2=O` (stereo partly drawn) [I-1253, mPEG2-PL3-Asp-Npg-B5-Asp-Asp-Ala-Ala-Phe-Asn-PyrS2-2C1F-BztA-dThr-NH2], the IC50 was 14 nM in series [1] and more than 20000 nM in series [2]. This molecule displayed a Solubility in the series “Solubility in PBS” (Solubility (uM)) of 42 µM (≈ 84.3 µg/mL).
